These results are taken from patent publication US11981686B2, “Urea compound having substituent” (DAIICHI SANKYO COMPANY, LIMITED, priority 2019, dated 2024).

SIRT6 enzyme, sequence (Q8N6T7 whole entry, species assumed): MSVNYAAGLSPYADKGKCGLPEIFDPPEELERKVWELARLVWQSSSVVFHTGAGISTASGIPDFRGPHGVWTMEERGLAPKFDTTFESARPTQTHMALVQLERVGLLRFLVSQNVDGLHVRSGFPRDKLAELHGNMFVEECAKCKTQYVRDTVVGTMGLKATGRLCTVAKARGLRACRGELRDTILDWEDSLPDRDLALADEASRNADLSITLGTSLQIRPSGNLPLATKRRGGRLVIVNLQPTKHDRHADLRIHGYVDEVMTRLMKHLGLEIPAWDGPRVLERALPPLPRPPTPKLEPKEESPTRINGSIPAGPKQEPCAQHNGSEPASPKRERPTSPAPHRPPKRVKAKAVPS

The assay addresses SIRT6 enzyme (Homo sapiens, UniProt Q8N6T7). Briefly: Measurement of deacetylation activity (SIRT6, AlphaLISA, H3K9(Ac) peptide). The format is biochemical. To be noted: SIRT6 25 ng/mL, H3K9(Ac) biotin peptide 2 nM, NAD 10 μM, room temperature 30 minutes, duplicate. The essentials: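 SIRT6 (25 ng/mL final) in Tris-HCl pH 8.0 buffer with compound (e.g. 0.046–100 μM final) reacted with biotin-H3K9(Ac) peptide (2 nM) and NAD+ (10 μM), 30 min, room temperature. Stopped with nicotinamide plus AlphaLISA anti-unmodified H3K9/K27 beads, 60 min; EC150 (150% relative activity) from sigmoidal fit.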
(In Alpha technology, singlet oxygen from a donor bead excites a nearby acceptor bead.)
For the molecule `O=C(Nc1nc2c(s1)[C@@H]1COC[C@H](C2)N1c1ncc(-c2cccc(OC(F)F)n2)o1)N[C@H]1CC[C@H](O)CC1` [Example 176, N-[(4S,8S)-10-{5-[6-(difluoromethoxy)pyridin-2-yl]-1,3-oxazol-2-yl}-4,7,8,9-tetrahydro-5H-4,8-epiminooxocino[5,4-d][1,3]thiazol-2-yl]-N′-[(1r,4r)-4-hydroxycyclohexyl]urea], the “EC150 (the concentration of the compound showing a relative enzyme activity of 150%)” value came to 0.33 μm.

In the case of `O=C(Nc1nc2c(s1)[C@@H]1COC[C@H](C2)N1c1ncc(-c2cccc(OC(F)F)c2)o1)N[C@@H]1CCOC1` [Example 73, N-[(4S,8S)-10-{5-[3-(difluoromethoxy)phenyl]-1,3-oxazol-2-yl}-4,7,8,9-tetrahydro-5H-4,8-epiminooxocino[5,4-d][1,3]thiazol-2-yl]-N′-[(3R)-oxolan-3-yl]urea], the “EC150 (the concentration of the compound showing a relative enzyme activity of 150%)” value turned out to be 0.4 μm.

As for `COc1ccc2oc(N3[C@@H]4COC[C@H]3c3sc(NC(=O)N[C@H]5CCOC5)nc3C4)nc2c1` [Example 151, N-[(4S,8S)-10-(5-methoxy-1,3-benzoxazol-2-yl)-4,7,8,9-tetrahydro-5H-4,8-epiminooxocino[5,4-d][1,3]thiazol-2-yl]-N′-[(3S)-oxolan-3-yl]urea], the “EC150 (the concentration of the compound showing a relative enzyme activity of 150%)” value amounted to 0.78 μm.

Regarding `CC(C)(CO)NC(=O)Nc1nc2c(s1)[C@@H]1COC[C@H](C2)N1c1cc(-c2ccc(F)cc2)on1` [Example 160, N-{(4S,8S)-10-[5-(4-fluorophenyl)-1,2-oxazol-3-yl]-4,7,8,9-tetrahydro-5H-4,8-epiminooxocino[5,4-d][1,3]thiazol-2-yl}-N′-(1-hydroxy-2-methylpropan-2-yl)urea], the “EC150 (the concentration of the compound showing a relative enzyme activity of 150%)” value was determined as 3.2 μm.

For `COc1ccc2oc(N3[C@@H]4COC[C@H]3c3sc(NC(=O)NCC(C)(C)O)nc3C4)nc2c1` [Example 46, N-(2-hydroxy-2-methylpropyl)-N′-[(4S,8S)-10-(5-methoxy-1,3-benzoxazol-2-yl)-4,7,8,9-tetrahydro-5H-4,8-epiminooxocino[5,4-d][1,3]thiazol-2-yl]urea], the “EC150 (the concentration of the compound showing a relative enzyme activity of 150%)” value is listed as 2.1 μm.

For the molecule `COc1nc(-c2cnc(N3[C@@H]4COC[C@H]3c3sc(NC(=O)N[C@H](C)CO)nc3C4)o2)ccc1C` [Example 193, N-[(2R)-1-hydroxypropan-2-yl]-N′-{(4S,8S)-10-[5-(6-methoxy-5-methylpyridin-2-yl)-1,3-oxazol-2-yl]-4,7,8,9-tetrahydro-5H-4,8-epiminooxocino[5,4-d][1,3]thiazol-2-yl}urea], the “EC150 (the concentration of the compound showing a relative enzyme activity of 150%)” value is 1.8 μm.

Turning to `COc1cccc(-c2cnc(N3[C@@H]4COC[C@H]3c3sc(NC(=O)NCC(C)(C)O)nc3C4)o2)n1` [Example 184, N-(2-hydroxy-2-methylpropyl)-N′-{(4S,8S)-10-[5-(6-methoxypyridin-2-yl)-1,3-oxazol-2-yl]-4,7,8,9-tetrahydro-5H-4,8-epiminooxocino[5,4-d][1,3]thiazol-2-yl}urea], the “EC150 (the concentration of the compound showing a relative enzyme activity of 150%)” value came to 0.91 μm.

For `C[C@H](CO)NC(=O)Nc1nc2c(s1)[C@@H]1COC[C@H](C2)N1c1cc(-c2ccc(F)cc2)on1` [Example 154, N-{(4S,8S)-10-[5-(4-fluorophenyl)-1,2-oxazol-3-yl]-4,7,8,9-tetrahydro-5H-4,8-epiminooxocino[5,4-d][1,3]thiazol-2-yl}-N′-[(2R)-1-hydroxypropan-2-yl]urea], the “EC150 (the concentration of the compound showing a relative enzyme activity of 150%)” value was determined as 0.82 μm.

For the molecule `CNC(=O)Nc1nc2c(s1)[C@@H]1COC[C@H](C2)N1c1nc(C2CCC(F)(F)CC2)no1` [Example 7, N-{(4S,8S)-10-[3-(4,4-difluorocyclohexyl)-1,2,4-oxadiazol-5-yl]-4,7,8,9-tetrahydro-5H-4,8-epiminooxocino[5,4-d][1,3]thiazol-2-yl}-N′-methylurea], the “EC150 (the concentration of the compound showing a relative enzyme activity of 150%)” value is 5.7 μm.

As for `CNC(=O)Nc1nc2c(s1)[C@@H]1CCC[C@H](C2)N1c1nc(-c2ccc(F)cc2)no1` (relative stereo) [Example 12, N-{(5R*,9S*)-10-[3-(4-fluorophenyl)-1,2,4-oxadiazol-5-yl]-4,5,6,7,8,9-hexahydro-5,9-epiminocycloocta[d][1,3]thiazol-2-yl}-N′-methylurea], the “EC150 (the concentration of the compound showing a relative enzyme activity of 150%)” value stood at 1.4 μm.

For `O=C(Nc1nc2c(s1)[C@@H]1COC[C@H](C2)N1c1cc(-c2ccc(F)cc2)on1)N[C@H]1CC[C@@H](O)CC1` [Example 61, N-{(4S,8S)-10-[5-(4-fluorophenyl)-1,2-oxazol-3-yl]-4,7,8,9-tetrahydro-5H-4,8-epiminooxocino[5,4-d][1,3]thiazol-2-yl}-N′-[(1s,4s)-4-hydroxycyclohexyl]urea], the “EC150 (the concentration of the compound showing a relative enzyme activity of 150%)” value came out at 1.9 μm.

On to `C[C@@H](CO)NC(=O)Nc1nc2c(s1)[C@@H]1COC[C@H](C2)N1c1ncc(-c2cccc(OC(F)F)n2)o1` [Example 169, N-[(4S,8S)-10-{5-[6-(difluoromethoxy)pyridin-2-yl]-1,3-oxazol-2-yl}-4,7,8,9-tetrahydro-5H-4,8-epiminooxocino[5,4-d][1,3]thiazol-2-yl]-N′-[(2S)-1-hydroxypropan-2-yl]urea], for which the “EC150 (the concentration of the compound showing a relative enzyme activity of 150%)” value is on record as 0.66 μm.

Turning to `CCOc1cccc(-c2cnc(N3[C@@H]4COC[C@H]3c3sc(NC(=O)N[C@H]5C[C@H](O)C5)nc3C4)o2)n1` [Example 80, N-{(4S,8S)-10-[5-(6-ethoxypyridin-2-yl)-1,3-oxazol-2-yl]-4,7,8,9-tetrahydro-5H-4,8-epiminooxocino[5,4-d][1,3]thiazol-2-yl}-N′-[(1r,3S)-3-hydroxycyclobutyl]urea], the “EC150 (the concentration of the compound showing a relative enzyme activity of 150%)” value is listed as 0.48 μm.

As to `CCOc1ccc2oc(N3[C@@H]4COC[C@H]3c3sc(NC(=O)NCC(C)(C)O)nc3C4)nc2c1` [Example 40, N-[(4S,8S)-10-(5-ethoxy-1,3-benzoxazol-2-yl)-4,7,8,9-tetrahydro-5H-4,8-epiminooxocino[5,4-d][1,3]thiazol-2-yl]-N′-(2-hydroxy-2-methylpropyl)urea], the “EC150 (the concentration of the compound showing a relative enzyme activity of 150%)” value is on record as 3.1 μm.

`CC(C)(O)CNC(=O)Nc1nc2c(s1)CN(c1nc(C3CCCC(F)(F)C3)no1)CC2` (stereo not drawn) [Example 28, N-{5-[3-(3,3-difluorocyclohexyl)-1,2,4-oxadiazol-5-yl]-4,5,6,7-tetrahydro[1,3]thiazolo[5,4-c]pyridin-2-yl}-N′-(2-hydroxy-2-methylpropyl)urea]: the “EC150 (the concentration of the compound showing a relative enzyme activity of 150%)” value is 2.1 μm.
